Consider three compounds from patent US20180134683A1, “HETEROCYLCIC COMPOUNDS AS IDH2 INHIBITORS” (TELIGENE LTD., priority 2015, published 2018).

Each structure is given as a SMILES string. Values after ≈ are worked out from the molar mass of the structure shown. Like-named read-outs stand apart in the source and are kept apart here.

The nature of data set [1]: Solubility measurement (HPLC). The format is physicochemical. Particulars: for solubility at 30 min: aqueous buffer, thermodynamic from solid, 25° C. As to the method: Preparation of reference standard solution: 2 mg of Compound 17 or Compound 19 was added individually to 100 mL volumetric flask each. The compound was diluted with acetonitrile to 100 mL.
Preparation of sample solution: 2 mg of Compound 17 or Compound 19 was added individually to 2 mL eppendorf tube (EP), followed by addition of 1 mL of pH 7.0 or 4.0 buffer solution (20 mM). The solution was shook for 2 minutes and left for 30 minutes at 25° C. After standing for 30 minutes, precipitate was formed in the bottom of the EP. The solutions was filtered through 0.2 um membrane filter, and then diluted by 50 times with water.
The standard and sample solutions were injected into the HPLC on a Shim-Pack CLC-ODS C18 column (150mm×6.0mm, 5um) with the same volume. The mobile phase consisted of acetonitrile with 2% trichloromethane−20 mM KH2PO4 buffer (pH=7.0) at a flow rate of 1 mL/minutes (40:60). The detection wavelength is at 264 nm. Calculation: solubility of sample=the concentration of standard×Area of sample×50 /Area of standard.

The target in another data set is T1, IDH2 R140Q (Homo sapiens, UniProt P48735, R140Q).
T1 sequence (P48735 40-452 R140Q): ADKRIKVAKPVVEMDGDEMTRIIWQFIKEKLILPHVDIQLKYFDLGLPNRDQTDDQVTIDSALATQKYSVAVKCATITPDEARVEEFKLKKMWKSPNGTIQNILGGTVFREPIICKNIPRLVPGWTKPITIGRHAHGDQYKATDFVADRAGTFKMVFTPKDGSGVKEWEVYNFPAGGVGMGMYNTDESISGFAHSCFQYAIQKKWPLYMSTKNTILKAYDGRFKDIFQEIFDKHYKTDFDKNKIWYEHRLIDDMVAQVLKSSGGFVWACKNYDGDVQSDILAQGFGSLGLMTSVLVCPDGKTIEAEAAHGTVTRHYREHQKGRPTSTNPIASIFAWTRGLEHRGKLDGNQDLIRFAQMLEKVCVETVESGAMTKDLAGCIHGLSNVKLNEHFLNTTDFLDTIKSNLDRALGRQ
Put plainly: IDH2 enzymatic assay (cofactor depletion assay). Type of data set: biochemical. The protocol:
Enzymatic Assay. Compounds were assayed for IDH2 R140Q inhibitory activity through a cofactor depletion assay. […] The reaction was terminated by the addition of a second enzyme, diaphorase, and a corresponding substrate, resazurin. Diaphorase reduces resazurin to the highly fluorescent resorufin with the concomitant oxidation of NADPH to NADP, both halting the IDH2 reaction by depleting the available cofactor pool and facilitating quantitation of the amount of cofactor remaining after a specific time period through quantitative production of an easily detected fluorophore. […] The compound was then incubated for one hour at room temperature with the enzyme; before starting the IDH2 reaction with the addition of 10 μl of substrate mix containing 50 μM NADPH and 6.3 mM a-KG in the buffer described above.

Another data set concerns the target ALK (L1152 R) (Homo sapiens, UniProt Q9UM73, L1152R). Description: In vitro kinase assay (33P-ATP, P81 filter). Particulars: for remaining activity at 10 µM: 10 μM compound, 10 μM ATP. Type of data set: biochemical. The protocol:
(§1) These properties may be assesses, for example, using one or more of the procedures set out below: • An in vitro assay which determines the ability of a test compound to inhibit kinases. Conducts the kinase assay with the following condition and procedure: • Reagent: Base Reaction Buffer; 20 mM Hepes (pH 7.5), 10 mM MgCl2, 1 mM EGTA, 0.02% Brij35, 0.02 mg/ml BSA, 0.1 mM Na3VO4, 2 mM DTT, 1% DMSO.
(§2) • 1. Prepare indicated substrate in freshly prepared Base Reaction Buffer. • 2. Deliver any required cofactors to the substrate solution obtained in step 1. • 3. Deliver indicated kinase into the substrate solution prepared in step 2 and gently mix. • 4. Deliver compounds in DMSO into the kinase reaction mixture prepared in step 3. • 5. Deliver ^33P-ATP (specific activity 0.01 μCi/μl final) into the reaction mixture prepared in step 4 to initiate the reaction. • 6. Incubate kinase reaction for 120 min. at room temperature. • 7. Reactions are spotted onto P81 ion exchange paper (Whatman # 3698-915). • 8. Washing filters extensively in 0.75% Phosphoric acid. Compound was tested in single dose duplicate mode at a concentration of 10 μM, reactions were carried out at 10 μM ATP

Another data set addresses T2, c-MER (A708S) (Homo sapiens, UniProt Q12866, A708S).
T2 sequence (Q12866 21-999 A708S): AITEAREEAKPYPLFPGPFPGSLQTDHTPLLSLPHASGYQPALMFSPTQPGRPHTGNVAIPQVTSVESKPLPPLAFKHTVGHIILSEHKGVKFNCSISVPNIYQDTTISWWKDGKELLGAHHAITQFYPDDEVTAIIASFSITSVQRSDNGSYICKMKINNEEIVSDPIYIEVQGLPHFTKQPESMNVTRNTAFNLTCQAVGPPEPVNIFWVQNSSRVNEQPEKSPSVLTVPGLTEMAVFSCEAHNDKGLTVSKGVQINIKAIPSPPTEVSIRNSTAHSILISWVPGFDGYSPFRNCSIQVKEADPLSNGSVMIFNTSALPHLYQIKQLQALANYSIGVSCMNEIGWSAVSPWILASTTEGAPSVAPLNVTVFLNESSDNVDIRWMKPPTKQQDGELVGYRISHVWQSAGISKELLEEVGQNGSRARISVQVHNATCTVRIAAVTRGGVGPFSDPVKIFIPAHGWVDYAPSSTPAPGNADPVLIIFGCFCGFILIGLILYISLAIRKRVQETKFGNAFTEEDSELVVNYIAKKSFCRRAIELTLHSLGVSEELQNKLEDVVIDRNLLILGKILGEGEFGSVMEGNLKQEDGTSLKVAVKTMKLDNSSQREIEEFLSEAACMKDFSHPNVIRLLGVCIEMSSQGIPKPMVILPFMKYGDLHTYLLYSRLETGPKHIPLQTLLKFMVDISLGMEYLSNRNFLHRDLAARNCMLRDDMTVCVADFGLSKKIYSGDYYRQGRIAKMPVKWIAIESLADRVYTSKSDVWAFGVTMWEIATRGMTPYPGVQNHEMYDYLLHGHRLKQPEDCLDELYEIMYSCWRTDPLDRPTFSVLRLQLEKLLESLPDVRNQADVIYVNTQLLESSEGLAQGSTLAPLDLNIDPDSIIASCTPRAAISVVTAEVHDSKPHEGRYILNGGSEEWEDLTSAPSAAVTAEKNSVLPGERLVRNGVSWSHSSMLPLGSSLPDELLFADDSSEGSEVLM
Description: In vitro kinase assay (33P-ATP, P81 filter). Type of data set: biochemical. Particulars: for remaining activity at 10 µM: 10 μM compound, 10 μM ATP. The protocol: as §1, §2

The next data set deals with BRAF (G464V) (Homo sapiens, UniProt P15056, G464V). Put plainly: In vitro kinase assay (33P-ATP, P81 filter). Type of data set: biochemical. Particulars: for remaining activity at 10 µM: 10 μM compound, 10 μM ATP. As to the method:
as §1, §2

The target in a further data set is T3, AXL (R499C) (Homo sapiens, UniProt P30530, R499C).
T3 sequence (P30530 26-894 R499C): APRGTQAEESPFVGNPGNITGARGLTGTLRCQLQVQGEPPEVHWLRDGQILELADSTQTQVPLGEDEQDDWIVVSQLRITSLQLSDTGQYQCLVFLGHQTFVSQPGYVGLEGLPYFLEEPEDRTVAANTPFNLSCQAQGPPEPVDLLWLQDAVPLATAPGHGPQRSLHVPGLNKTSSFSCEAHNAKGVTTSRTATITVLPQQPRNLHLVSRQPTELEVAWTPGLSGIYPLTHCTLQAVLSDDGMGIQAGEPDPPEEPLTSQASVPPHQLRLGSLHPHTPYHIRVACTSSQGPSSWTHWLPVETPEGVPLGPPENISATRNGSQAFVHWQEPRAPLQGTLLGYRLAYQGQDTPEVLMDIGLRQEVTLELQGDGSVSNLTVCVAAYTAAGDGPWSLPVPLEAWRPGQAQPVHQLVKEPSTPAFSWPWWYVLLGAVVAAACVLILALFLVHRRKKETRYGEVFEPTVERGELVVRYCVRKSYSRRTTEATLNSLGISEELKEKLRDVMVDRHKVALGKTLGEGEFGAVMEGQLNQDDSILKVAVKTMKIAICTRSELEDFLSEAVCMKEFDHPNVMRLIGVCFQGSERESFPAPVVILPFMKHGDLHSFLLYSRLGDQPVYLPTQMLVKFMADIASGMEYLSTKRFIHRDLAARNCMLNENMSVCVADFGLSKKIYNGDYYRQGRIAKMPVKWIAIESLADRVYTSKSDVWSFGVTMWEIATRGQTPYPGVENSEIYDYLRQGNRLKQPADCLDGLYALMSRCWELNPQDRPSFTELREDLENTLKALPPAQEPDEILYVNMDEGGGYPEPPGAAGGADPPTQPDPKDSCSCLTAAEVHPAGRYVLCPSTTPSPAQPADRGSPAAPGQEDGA
Description: In vitro kinase assay (33P-ATP, P81 filter). Type of data set: biochemical. Particulars: for remaining activity at 10 µM: 10 μM compound, 10 μM ATP. The protocol: as §1, §2

Data set [2] can be described thus: Pharmacokinetic (PK) profile.
[3] abbreviates: pH 4.0 buffer solution (20 mM), read-out: Solubility at pH 4.0.
The mark [4] stands for this setting: pH 7.0 buffer solution (20 mM), read-out: Solubility at pH 7.0.
Where [5] appears, read: IDH2 R140Q, one hour preincubation, 60 minutes reaction, read-out: Enzyme Inhibition IDH2.
The mark [6] stands for this setting: duplicate 1, read-out: % Enzyme Activity (relative to DMSO controls) Data 1.
The mark [7] stands for this setting: duplicate 2, read-out: % Enzyme Activity (relative to DMSO controls) Data 2.

Sequence of BRAF (G464V) (P15056 whole entry G464V): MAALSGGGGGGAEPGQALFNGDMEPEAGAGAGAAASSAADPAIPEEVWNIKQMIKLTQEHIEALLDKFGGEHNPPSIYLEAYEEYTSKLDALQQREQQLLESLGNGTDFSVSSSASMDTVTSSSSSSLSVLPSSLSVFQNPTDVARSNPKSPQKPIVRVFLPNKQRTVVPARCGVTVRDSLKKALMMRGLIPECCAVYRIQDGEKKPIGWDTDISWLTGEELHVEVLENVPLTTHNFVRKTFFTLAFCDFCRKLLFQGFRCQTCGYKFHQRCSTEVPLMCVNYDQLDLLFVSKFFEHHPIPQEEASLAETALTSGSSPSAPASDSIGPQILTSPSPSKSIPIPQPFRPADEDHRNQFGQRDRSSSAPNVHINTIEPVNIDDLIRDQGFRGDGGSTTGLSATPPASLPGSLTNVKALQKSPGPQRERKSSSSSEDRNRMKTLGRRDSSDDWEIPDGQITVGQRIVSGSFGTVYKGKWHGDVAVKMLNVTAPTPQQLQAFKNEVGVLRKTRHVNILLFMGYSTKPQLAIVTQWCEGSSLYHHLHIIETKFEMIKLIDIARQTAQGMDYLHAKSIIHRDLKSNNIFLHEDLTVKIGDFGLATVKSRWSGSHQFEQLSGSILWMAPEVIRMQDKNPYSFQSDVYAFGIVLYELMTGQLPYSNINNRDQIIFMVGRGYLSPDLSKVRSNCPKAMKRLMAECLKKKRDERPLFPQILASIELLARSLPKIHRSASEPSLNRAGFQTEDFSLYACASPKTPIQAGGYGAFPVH
Sequence of ALK (L1152 R) (Q9UM73 19-1620 L1152R): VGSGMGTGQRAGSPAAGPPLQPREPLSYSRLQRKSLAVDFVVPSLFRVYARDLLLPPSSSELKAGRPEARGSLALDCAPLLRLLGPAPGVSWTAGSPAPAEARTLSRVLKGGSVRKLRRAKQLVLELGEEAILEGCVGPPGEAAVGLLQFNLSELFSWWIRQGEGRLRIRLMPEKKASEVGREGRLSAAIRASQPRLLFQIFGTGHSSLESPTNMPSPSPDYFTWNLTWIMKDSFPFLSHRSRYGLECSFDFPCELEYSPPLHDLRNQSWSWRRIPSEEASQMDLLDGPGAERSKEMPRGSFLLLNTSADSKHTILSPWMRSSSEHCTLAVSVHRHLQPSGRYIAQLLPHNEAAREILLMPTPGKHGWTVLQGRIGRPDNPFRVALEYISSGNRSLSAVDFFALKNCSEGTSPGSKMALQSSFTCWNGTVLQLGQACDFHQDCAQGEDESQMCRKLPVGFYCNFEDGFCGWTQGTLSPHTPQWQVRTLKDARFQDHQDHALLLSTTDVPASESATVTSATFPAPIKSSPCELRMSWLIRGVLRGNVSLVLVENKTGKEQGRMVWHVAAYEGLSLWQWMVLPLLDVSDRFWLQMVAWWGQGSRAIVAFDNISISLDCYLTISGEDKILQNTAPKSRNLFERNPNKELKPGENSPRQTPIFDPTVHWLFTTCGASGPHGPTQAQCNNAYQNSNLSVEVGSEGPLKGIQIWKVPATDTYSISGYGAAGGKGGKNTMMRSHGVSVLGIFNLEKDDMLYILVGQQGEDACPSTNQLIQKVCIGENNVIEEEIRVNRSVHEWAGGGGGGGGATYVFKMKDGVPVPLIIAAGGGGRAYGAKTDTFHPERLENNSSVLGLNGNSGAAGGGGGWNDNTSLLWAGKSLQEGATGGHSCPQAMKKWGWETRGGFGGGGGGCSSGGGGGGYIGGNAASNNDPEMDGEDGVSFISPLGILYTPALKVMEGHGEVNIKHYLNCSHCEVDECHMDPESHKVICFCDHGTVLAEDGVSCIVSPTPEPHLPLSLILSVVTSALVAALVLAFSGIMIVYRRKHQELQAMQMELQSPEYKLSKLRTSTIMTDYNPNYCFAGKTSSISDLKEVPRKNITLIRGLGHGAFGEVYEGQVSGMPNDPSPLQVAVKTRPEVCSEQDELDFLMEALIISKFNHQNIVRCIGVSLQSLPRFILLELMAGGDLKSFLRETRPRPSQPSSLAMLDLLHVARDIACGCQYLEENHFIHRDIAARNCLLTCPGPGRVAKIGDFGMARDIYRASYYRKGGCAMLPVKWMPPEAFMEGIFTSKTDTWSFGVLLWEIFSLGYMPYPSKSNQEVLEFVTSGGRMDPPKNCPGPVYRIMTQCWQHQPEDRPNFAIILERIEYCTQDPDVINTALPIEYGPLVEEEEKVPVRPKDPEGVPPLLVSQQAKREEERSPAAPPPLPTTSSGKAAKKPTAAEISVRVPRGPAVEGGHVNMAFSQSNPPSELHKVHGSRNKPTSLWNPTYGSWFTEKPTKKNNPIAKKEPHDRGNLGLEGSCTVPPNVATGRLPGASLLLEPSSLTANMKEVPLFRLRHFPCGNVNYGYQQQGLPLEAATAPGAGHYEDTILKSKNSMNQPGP

Regarding `CN1CCN(c2nc(Nc3ccnc(C(F)(F)F)c3)nc(-c3cccc(C(F)(F)F)n3)n2)CC1` [Compound 17, 4-(4-methylpiperazin-1-yl)-6-(6-(trifluoromethyl)pyridin-2-yl)-N-(2-(trifluoromethyl)pyridin-4-yl)-1,3,5-triazin-2-amine], the “safety profile compared with Compound 19 (in words)” value in the data set “Safety profile” is recorded as “favorable safety profile”. Moreover, the values for the solubility at 30 min in data set [1] (setting [3]) and in data set [1] (setting [4]) were 123 µg/mL (≈ 254 µM) and 0.276 µg/mL (≈ 0.57 µM), respectively. The figures for the “solubility compared with Compound 19 (in words)” value in data set [1] (pH=4.0) and in data set [1] (pH=7.0) were “much higher solubility” and “better solubility”, respectively. Further, the IC50 at IDH2 R140Q (setting [5]) is 262 nM. Further, the remaining activity at 10 µM was determined as 79.2% on ALK (L1152 R) (setting [6]); 78.9% on ALK (L1152 R) (setting [7]); 79.8% at c-MER (A708S) (setting [6]); 79.5% on c-MER (A708S) (setting [7]); 69.9% at BRAF (G464V) (setting [6]); 68.9% on BRAF (G464V) (setting [7]). Also, the remaining activity at 10 µM came out at 58.2% on AXL (R499C) (setting [6]) and 58.1% at AXL (R499C) (setting [7]). In addition, the “activity against kinase (in words)” value on ALK (L1152 R) (panel of kinases), at c-MER (A708S) (panel of kinases), at BRAF (G464V) (panel of kinases) and at AXL (R499C) (panel of kinases) was “active” throughout. Besides, the “pharmacokinetic (PK) profile compared with Compound 19 (in words)” value in data set [2] is on record as “better pharmacokinecitc (PK)”.

On to `CN(C)c1nc(Nc2ccnc(C(F)(F)F)c2)nc(-c2cccc(C(F)(F)F)n2)n1` [Compound 18, N^2,N^2-dimethyl-6-(6-(trifluoromethyl)pyridin-2-yl)-N^4-(2-(trifluoromethyl)pyridin-4-yl)-1,3,5-triazine-2,4-diamine], for which, on IDH2 R140Q (setting [5]), the IC50 stood at 12.2 nM.

Consider `CC(C)(O)CNc1nc(Nc2ccnc(C(F)(F)F)c2)nc(-c2cccc(C(F)(F)F)n2)n1` [Compound 19, reference compound], for which the solubility at 30 min in data set [1] (setting [3]) worked out at 1.59 µg/mL (≈ 3.36 µM); in data set [1] (setting [4]), 0.109 µg/mL (≈ 0.23 µM). For the same compound, the IC50 against IDH2 R140Q came out at 401 nM.

By solubility is commonly meant the dissolved amount per volume that the medium holds.
